# How the values were obtained:
# Assay in all cases: Test B pre-emergence on Fallsington silt loam
# Morningglory = format: in vivo, Ipomoea hederacea; conditions: 0.06 kg/ha, 28 days
# Excerpt: (§1) Two plastic bulb pans were filled with fertilized and limed Fallsington silt loam soil. One pan was planted with corn, sorghum, Kentucky bluegrass and several grassy weeds. The other pan was planted with cotton, soybeans, purple nutsedge (Cyperus rotundus), and several broadleaf weeds. The following grassy and broadleaf weeds were planted: crabgrass (Digitaria sanguinalis), barnyardgrass (Echinochloa crusgalli), wild oats (Avena fatua), johnsongrass (Sorghum halepense), dallisgrass (Paspalum dilatatum), giant foxtail (Setaria faberii), cheatgrass (Bromus secalinus), mustard (Brassica arvensis), cocklebur (Xanthium pensylvanicum), pigweed (Amaranthus retroflexus), morningglory (Ipomoea hederacea), cassia (Cassia tora), teaweed (Sida spinosa), velvetleaf (Abutilon theophrasti), and jimsonweed (Datura stramonium). A 12.5 cm diameter plastic pot was also filed with prepared soil and planted with rice and wheat. Another 12.5 cm pot was planted with sugarbeets. The above four containers were treated pre- emergence with several test compounds within the scope of the invention.
# (§2) Twenty-eight days after treatment, the plants were evaluated and visually rated for response to the chemical treatments utilizing the rating system described previously for Test A. The data are summarized in Table B.
# Crabgrass = format: in vivo, Digitaria sanguinalis; set-up: scale not given here; conditions: 28 days
# Excerpt: as §1, §2
# Rice = format: in vivo; conditions: 28 days
# Excerpt: as §1, §2
# Cotton = format: in vivo; conditions: 0.06 kg/ha, 28 days
# Excerpt: as §1, §2
# Barnyardgrass = format: in vivo, Echinochloa crusgalli; conditions: 0.06 kg/ha, 28 days
# Excerpt: as §1, §2
# Giant Foxtail = format: in vivo, Setaria faberii; conditions: 0.06 kg/ha, 28 days
# Excerpt: as §1, §2
# Dallisgrass = format: in vivo, Paspalum dilatatum; set-up: scale not given here; conditions: 28 days
# Excerpt: as §1, §2
# Soybean = format: in vivo, soybeans; conditions: 0.06 kg/ha, 28 days
# Excerpt: as §1, §2
# Cassia = format: in vivo, Cassia tora; conditions: 0.06 kg/ha, 28 days
# Excerpt: as §1, §2
# Cheatgrass = format: in vivo, Bromus secalinus; conditions: 28 days
# Excerpt: as §1, §2
# Ky. bluegrass = format: in vivo, Kentucky bluegrass; set-up: scale not given here; conditions: 28 days
# Excerpt: as §1, §2
# Wild Oats = format: in vivo, Avena fatua; set-up: scale not given here; conditions: 28 days
# Excerpt: as §1, §2
# Nutsedge = format: in vivo, Cyperus rotundus; conditions: 0.06 kg/ha, 28 days
# Excerpt: as §1, §2
smiles,measurement,setting,value
"CCCS(=O)(=O)Oc1ccccc1S(=O)(=O)NC(=O)Nc1nc(OC)cc(OC)n1 [Compound 36, N-[(4,6-dimethoxypropimidin-2-yl)aminocarbonyl]-2-hydroxybenzenesulfonamide, 1-propanesulfonate]",Morningglory response rating,Morningglory,4G
same,Crabgrass response rating,Crabgrass; 0.06 kg/ha,2G
same,Crabgrass response rating,Crabgrass; 0.25 kg/ha,4G
same,Rice response rating,Rice; 0.06 kg/ha,3G
same,Rice response rating,Rice; 0.25 kg/ha,5G
same,Cotton response rating,Cotton,4G
same,Barnyardgrass response rating,Barnyardgrass,4G
same,Giant Foxtail response rating,Giant Foxtail,4G
same,Dallisgrass response rating,Dallisgrass; 0.06 kg/ha,4G
same,Dallisgrass response rating,Dallisgrass; 0.25 kg/ha,5G
same,Soybean response rating,Soybean,2G
same,Cassia response rating,Cassia,6G
same,Cheatgrass response rating,Cheatgrass; 0.06 kg/ha,6G
same,Cheatgrass response rating,Cheatgrass; 0.25 kg/ha,7G
same,Ky. bluegrass response rating,Ky. bluegrass; 0.06 kg/ha,6G
same,Ky. bluegrass response rating,Ky. bluegrass; 0.25 kg/ha,7G
same,Wild Oats response rating,Wild Oats; 0.06 kg/ha,4G
same,Wild Oats response rating,Wild Oats; 0.25 kg/ha,4G
same,Nutsedge response rating,Nutsedge,7G

# — patent EP0044212B1, “Herbicidal o-alkylsulfonyloxy- and o-alkylsulfonylamino-benzenesulfonamides” (E.I. DU PONT DE NEMOURS AND COMPANY, priority 1980, dated 1982)
